Test results from patent US20210254272A1, “TEXTILES HAVING ANTIMICROBIAL PROPERTIES” (Livinguard AG, priority 2015, published 2021).

Tested on: E. coli (ATCC 25922)
Assay: AATCC Test Method 100-2012 antibacterial activity of the treated textile, after 25 washes and 12 abrasion cycles, contact time 60 minutes
Assay type: cell-based
Experimental: The antibacterial activity of the textile was tested in accordance with AATCC Test Method 100-2012. Prior to the test, the fabric was cut into coupons of 2×4 inches and washed separately 25 times, and exposed to 12 abrasion cycles, as per US EPA protocol 90072PA4 (described further below). The tests were made against E. coli (ATCC 25922). Contact time was 60 minutes, after inoculating with 10^8 CFU per coupon.

polyglucosamine [chitosan]
Log reduction of antimicrobial performance of each active ingredient (exhaust 80 ° C., solution dosage 1% o.w.f, process time 90 min): 2.72 Log | Log reduction of antimicrobial performance (pure cotton fabric, exhaust 80° C., 60 min, dosage 0.1% o.w.f): 0.63 Log | Log reduction of antimicrobial performance (pure cotton fabric, exhaust 80° C., 60 min, dosage 0.2% o.w.f): 1.37 Log | Log reduction of antimicrobial performance (pure cotton fabric, exhaust 80° C., 60 min, dosage 0.5% o.w.f): 1.91 Log | Log reduction of antimicrobial performance (pure cotton fabric, exhaust 80° C., 60 min, dosage 0.8% o.w.f): 2.21 Log | Log reduction of antimicrobial performance (pure cotton fabric, exhaust 80° C., 60 min, dosage 1.0% o.w.f): 2.71 Log | Log reduction of antimicrobial performance (pure cotton, exhaust 80° C., 1% o.w.f, 60 min, curing 180° C., curing dwell time 0.5 min): 0.4 Log | Log reduction of antimicrobial performance (pure cotton, exhaust 80° C., 1% o.w.f, 60 min, curing 180° C., curing dwell time 1.0 min): 0.8 Log | Log reduction of antimicrobial performance (pure cotton, exhaust 80° C., 1% o.w.f, 60 min, curing 180° C., curing dwell time 1.5 min): 1.6 Log | Log reduction of antimicrobial performance (pure cotton, exhaust 80° C., 1% o.w.f, 60 min, curing 180° C., curing dwell time 2.0 min): 2.7 Log | Log reduction of antimicrobial performance (pure cotton, exhaust 80° C., 1% o.w.f, 60 min, curing 180° C., curing dwell time 2.5 min): 2.3 Log | Log reduction of antimicrobial performance (pure cotton, exhaust 80° C., 1% o.w.f, 60 min, curing 180° C., curing dwell time 3.0 min): 1.4 Log | Log reduction of antimicrobial performance (solution dosage 0.10% o.w.f, exhaust temperature 40° C., process time 60 min): 0 Log | Log reduction of antimicrobial performance (solution dosage 0.10% o.w.f, exhaust temperature 60° C., process time 60 min): 0 Log | Log reduction of antimicrobial performance (solution dosage 0.10% o.w.f, exhaust temperature 65° C., process time 60 min): 0 Log | Log reduction of antimicrobial performance (solution dosage 0.10% o.w.f, exhaust temperature 70° C., process time 60 min): 0 Log | Log reduction of antimicrobial performance (solution dosage 0.10% o.w.f, exhaust temperature 75° C., process time 60 min): 0.23 Log | Log reduction of antimicrobial performance (solution dosage 0.10% o.w.f, exhaust temperature 80° C., process time 60 min): 0.57 Log | Log reduction of antimicrobial performance (solution dosage 0.10% o.w.f, exhaust temperature 85° C., process time 60 min): 0.67 Log | Log reduction of antimicrobial performance (solution dosage 0.10% o.w.f, exhaust temperature 90° C., process time 60 min): 0.67 Log | Log reduction of antimicrobial performance (solution dosage 0.10% o.w.f, exhaust temperature 95° C., process time 60 min): 0.67 Log | Log reduction of antimicrobial performance (solution dosage 0.20% o.w.f, exhaust temperature 40° C., process time 60 min): 0 Log | Log reduction of antimicrobial performance (solution dosage 0.20% o.w.f, exhaust temperature 60° C., process time 60 min): 0 Log | Log reduction of antimicrobial performance (solution dosage 0.20% o.w.f, exhaust temperature 65° C., process time 60 min): 0 Log | Log reduction of antimicrobial performance (solution dosage 0.20% o.w.f, exhaust temperature 70° C., process time 60 min): 0 Log | Log reduction of antimicrobial performance (solution dosage 0.20% o.w.f, exhaust temperature 75° C., process time 60 min): 0.67 Log | Log reduction of antimicrobial performance (solution dosage 0.20% o.w.f, exhaust temperature 80° C., process time 60 min): 1.34 Log | Log reduction of antimicrobial performance (solution dosage 0.20% o.w.f, exhaust temperature 85° C., process time 60 min): 1.43 Log | Log reduction of antimicrobial performance (solution dosage 0.20% o.w.f, exhaust temperature 90° C., process time 60 min): 1.45 Log | Log reduction of antimicrobial performance (solution dosage 0.20% o.w.f, exhaust temperature 95° C., process time 60 min): 1.45 Log | Log reduction of antimicrobial performance (solution dosage 0.50% o.w.f, exhaust temperature 40° C., process time 60 min): 0 Log | Log reduction of antimicrobial performance (solution dosage 0.50% o.w.f, exhaust temperature 60° C., process time 60 min): 0.09 Log | Log reduction of antimicrobial performance (solution dosage 0.50% o.w.f, exhaust temperature 65° C., process time 60 min): 0.09 Log | Log reduction of antimicrobial performance (solution dosage 0.50% o.w.f, exhaust temperature 70° C., process time 60 min): 0.15 Log | Log reduction of antimicrobial performance (solution dosage 0.50% o.w.f, exhaust temperature 75° C., process time 60 min): 1.12 Log | Log reduction of antimicrobial performance (solution dosage 0.50% o.w.f, exhaust temperature 80° C., process time 60 min): 1.89 Log | Log reduction of antimicrobial performance (solution dosage 0.50% o.w.f, exhaust temperature 85° C., process time 60 min): 1.93 Log | Log reduction of antimicrobial performance (solution dosage 0.50% o.w.f, exhaust temperature 90° C., process time 60 min): 1.94 Log | Log reduction of antimicrobial performance (solution dosage 0.50% o.w.f, exhaust temperature 95° C., process time 60 min): 1.94 Log | Log reduction of antimicrobial performance (solution dosage 0.80% o.w.f, exhaust temperature 40° C., process time 60 min): 0 Log | Log reduction of antimicrobial performance (solution dosage 0.80% o.w.f, exhaust temperature 60° C., process time 60 min): 0.15 Log | Log reduction of antimicrobial performance (solution dosage 0.80% o.w.f, exhaust temperature 65° C., process time 60 min): 0.15 Log | Log reduction of antimicrobial performance (solution dosage 0.80% o.w.f, exhaust temperature 70° C., process time 60 min): 0.21 Log | Log reduction of antimicrobial performance (solution dosage 0.80% o.w.f, exhaust temperature 75° C., process time 60 min): 1.23 Log | Log reduction of antimicrobial performance (solution dosage 0.80% o.w.f, exhaust temperature 80° C., process time 60 min): 2.11 Log | Log reduction of antimicrobial performance (solution dosage 0.80% o.w.f, exhaust temperature 85° C., process time 60 min): 2.34 Log | Log reduction of antimicrobial performance (solution dosage 0.80% o.w.f, exhaust temperature 90° C., process time 60 min): 2.37 Log | Log reduction of antimicrobial performance (solution dosage 0.80% o.w.f, exhaust temperature 95° C., process time 60 min): 2.37 Log | Log reduction of antimicrobial performance (solution dosage 1.00% o.w.f, exhaust temperature 40° C., process time 60 min): 0 Log | Log reduction of antimicrobial performance (solution dosage 1.00% o.w.f, exhaust temperature 60° C., process time 60 min): 0.21 Log | Log reduction of antimicrobial performance (solution dosage 1.00% o.w.f, exhaust temperature 65° C., process time 60 min): 0.22 Log | Log reduction of antimicrobial performance (solution dosage 1.00% o.w.f, exhaust temperature 70° C., process time 60 min): 0.32 Log | Log reduction of antimicrobial performance (solution dosage 1.00% o.w.f, exhaust temperature 75° C., process time 60 min): 1.28 Log | Log reduction of antimicrobial performance (solution dosage 1.00% o.w.f, exhaust temperature 80° C., process time 60 min): 2.67 Log | Log reduction of antimicrobial performance (solution dosage 1.00% o.w.f, exhaust temperature 85° C., process time 60 min): 2.76 Log | Log reduction of antimicrobial performance (solution dosage 1.00% o.w.f, exhaust temperature 90° C., process time 60 min): 2.78 Log | Log reduction of antimicrobial performance (solution dosage 1.00% o.w.f, exhaust temperature 95° C., process time 60 min): 2.78 Log
